Reference: US11045453B1 (priority 2020, dated 2021)
Entries after “also recorded” stand apart in the source; their conditions may differ.

Experiments:
Human Trypsin-3 = Human Trypsin-3 (Homo sapiens, UniProt P35030); experiment: biochemical
Human Spinesin = Human Spinesin (Homo sapiens, UniProt Q9H3S3); experiment: Ki determination, chromogenic substrate cleavage; type: biochemical; conditions: read-out: Ki Mean ± SD (n)
[1] = biological target: Human uPA (H99A in medium) (Homo sapiens, UniProt P00749, H272A); experiment: Ki determination, chromogenic substrate cleavage; type: biochemical; conditions: read-out: Ki Mean ± SD (n)
[2] = biological target: Human uPA (Q192A in medium) (Homo sapiens, UniProt P00749, Q373A); experiment: Ki determination, chromogenic substrate cleavage; type: biochemical; conditions: read-out: Ki Mean ± SD (n)
Human PRSS27 = Human PRSS27 (Homo sapiens, UniProt Q9BQR3); experiment: Protease inhibition (IC50), chromogenic substrate cleavage; type: biochemical; conditions: listed as marked (IC50) in the Ki column, read-out: IC50 Mean ± SD (n)
Human TMPRSS11(A) = biological target: T1, Human TMPRSS11(A) (Homo sapiens, UniProt Q6ZMR5); experiment: Ki determination, chromogenic substrate cleavage; type: biochemical; conditions: read-out: Ki Mean ± SD (n)
T1 construct: purchased MyBioSource MBS1345824; host or cells: mammalian expression system
Procedure: The Ki was determined to be 0.39±0.01 (3) μM.

Human HAT = Human HAT (Homo sapiens, UniProt O60235); experiment: Ki determination, chromogenic substrate cleavage; type: biochemical; conditions: read-out: Ki Mean ± SD (n)
[3] = biological target: Human Activated Protein C (Homo sapiens, UniProt P04070); experiment: Ki determination, chromogenic substrate cleavage; type: biochemical; conditions: read-out: Ki Mean ± SD (n)
Human Hepsin = Human Hepsin (Homo sapiens, UniProt P05981); experiment: Ki determination, chromogenic substrate cleavage; type: biochemical; conditions: read-out: Ki Mean ± SD (n)
Mouse uPA = Mouse uPA (Mus musculus, UniProt P06869); experiment: Ki determination, chromogenic substrate cleavage; type: biochemical; conditions: read-out: Ki Mean ± SD (n)
Human Trypsin-6 = Human Trypsin-6 (Homo sapiens, UniProt Q8NHM4); experiment: Ki determination, chromogenic substrate cleavage; type: biochemical; conditions: read-out: Ki Mean ± SD (n)
[4] = system: SARS-CoV-2 clinical isolate (2019-nCoV/USA-WA1/2020); type: cell-based
Human Kallikrein-8 = Human Kallikrein-8 (Homo sapiens, UniProt O60259); experiment: Ki determination, chromogenic substrate cleavage; type: biochemical; conditions: read-out: Ki Mean ± SD (n)
Human Enterokinase = Human Enterokinase (Homo sapiens, UniProt P98073); experiment: Ki determination, chromogenic substrate cleavage; type: biochemical; conditions: read-out: Ki Mean ± SD (n)
Human Fxa = biological target: T2, Human Fxa (Homo sapiens, UniProt P00742); experiment: Ki determination, chromogenic substrate cleavage; type: biochemical; conditions: read-out: Ki Mean ± SD (n)
T2 construct: Human Fxa

[5] = system: VSVpp+SARS-2-S Δ18 in Calu-3 cells; type: cell-based, human
Human Granzyme A = Human Granzyme A (Homo sapiens, UniProt P12544); experiment: Ki determination, chromogenic substrate cleavage; type: biochemical; conditions: read-out: Ki Mean ± SD (n)
Human Plasmin = biological target: T3, Human Plasmin (Homo sapiens, UniProt P00747); experiment: Ki determination, chromogenic substrate cleavage; type: biochemical; conditions: read-out: Ki Mean ± SD (n)
T3 construct: Human Plasmin

Rat uPA = Rat uPA (Rattus norvegicus, UniProt P29598); experiment: Ki determination, chromogenic substrate cleavage; type: biochemical; conditions: read-out: Ki Mean ± SD (n)
Rabbit uPA = Rabbit uPA (Oryctolagus cuniculus, UniProt Q8MHY7); experiment: Ki determination, chromogenic substrate cleavage; type: biochemical; conditions: read-out: Ki Mean ± SD (n)
Human Kallikrein-1 = Human Kallikrein-1 (Homo sapiens, UniProt P06870); experiment: Ki determination, chromogenic substrate cleavage; type: biochemical; conditions: read-out: Ki Mean ± SD (n)
Human FXIa = biological target: T4, Human FXIa (Homo sapiens, UniProt P03951); experiment: Ki determination, chromogenic substrate cleavage; type: biochemical; conditions: read-out: Ki Mean ± SD (n)
T4 construct: Human FXIa

[6] = system: VSV-G pseudotypes in Calu-3 cells; type: cell-based, human
Human Trypsin-2 = Human Trypsin-2 (Homo sapiens, UniProt P07478); experiment: biochemical
[7] = system: VSVpp+SARS-2-S Δ18 in Vero-E6 cells; type: cell-based, African green monkey
Human Trypsin-1 = Human Trypsin-1 (Homo sapiens, UniProt P07477); experiment: biochemical
Human Thrombin = biological target: T5, Human Thrombin (Homo sapiens, UniProt P00734); experiment: Ki determination, chromogenic substrate cleavage; type: biochemical; conditions: read-out: Ki Mean ± SD (n)
T5 construct: Human Thrombin

Human FIXa = biological target: T6, Human FIXa (Homo sapiens, UniProt P00740); experiment: Ki determination, chromogenic substrate cleavage; type: biochemical; conditions: read-out: Ki Mean ± SD (n)
T6 construct: Human FIXa

Human Matriptase-2 = Human Matriptase-2 (Homo sapiens, UniProt Q8IU80); experiment: Ki determination, chromogenic substrate cleavage; type: biochemical; conditions: read-out: Ki Mean ± SD (n)
Human two-chain tPA = biological target: T7, Human two-chain tPA (Homo sapiens, UniProt P00750); experiment: Ki determination, chromogenic substrate cleavage; type: biochemical; conditions: read-out: Ki Mean ± SD (n)
T7 construct: Human two-chain tPA

Human C1s = Human C1s (Homo sapiens, UniProt P09871); experiment: Ki determination, chromogenic substrate cleavage; type: biochemical; conditions: read-out: Ki Mean ± SD (n)
Human uPA = Human uPA (Homo sapiens, UniProt P00749); experiment: Ki determination, chromogenic substrate cleavage; type: biochemical; conditions: read-out: Ki Mean ± SD (n)
Human Kallikrein-11 = Human Kallikrein-11 (Homo sapiens, UniProt Q9UBX7); experiment: Ki determination, chromogenic substrate cleavage; type: biochemical; conditions: read-out: Ki Mean ± SD (n)
Human Plasma Kallikrein = Human Plasma Kallikrein (Homo sapiens, UniProt P03952); experiment: Ki determination, chromogenic substrate cleavage; type: biochemical; conditions: read-out: Ki Mean ± SD (n)
Human TMPRSS2 = biological target: T8, Human TMPRSS2 (Homo sapiens, UniProt O15393); experiment: Ki determination, chromogenic substrate cleavage; type: biochemical; conditions: read-out: Ki Mean ± SD (n)
T8 construct: purchased MyBioSource MBS1193731; host or cells: mammalian expression system
Procedure: The Ki was determined to be 2.9±0.04 (3) μM.

Human DESC-1 = Human DESC-1 (Homo sapiens, UniProt Q9UL52); experiment: Ki determination, chromogenic substrate cleavage; type: biochemical; conditions: read-out: Ki Mean ± SD (n)
[8] = biological target: Bovine Cationic Trypsin-1 (Bos taurus, UniProt P00760); experiment: Ki determination, chromogenic substrate cleavage; type: biochemical; conditions: read-out: Ki Mean ± SD (n)
Human Prostasin = Human Prostasin (Homo sapiens, UniProt Q16651); experiment: Protease inhibition (IC50), chromogenic substrate cleavage; type: biochemical; conditions: listed as marked (IC50) in the Ki column, read-out: IC50 Mean ± SD (n)
Human HGFA = Human HGFA (Homo sapiens, UniProt Q04756); experiment: Ki determination, chromogenic substrate cleavage; type: biochemical; conditions: read-out: Ki Mean ± SD (n)

Sequence of Human C1s (P09871 16-688): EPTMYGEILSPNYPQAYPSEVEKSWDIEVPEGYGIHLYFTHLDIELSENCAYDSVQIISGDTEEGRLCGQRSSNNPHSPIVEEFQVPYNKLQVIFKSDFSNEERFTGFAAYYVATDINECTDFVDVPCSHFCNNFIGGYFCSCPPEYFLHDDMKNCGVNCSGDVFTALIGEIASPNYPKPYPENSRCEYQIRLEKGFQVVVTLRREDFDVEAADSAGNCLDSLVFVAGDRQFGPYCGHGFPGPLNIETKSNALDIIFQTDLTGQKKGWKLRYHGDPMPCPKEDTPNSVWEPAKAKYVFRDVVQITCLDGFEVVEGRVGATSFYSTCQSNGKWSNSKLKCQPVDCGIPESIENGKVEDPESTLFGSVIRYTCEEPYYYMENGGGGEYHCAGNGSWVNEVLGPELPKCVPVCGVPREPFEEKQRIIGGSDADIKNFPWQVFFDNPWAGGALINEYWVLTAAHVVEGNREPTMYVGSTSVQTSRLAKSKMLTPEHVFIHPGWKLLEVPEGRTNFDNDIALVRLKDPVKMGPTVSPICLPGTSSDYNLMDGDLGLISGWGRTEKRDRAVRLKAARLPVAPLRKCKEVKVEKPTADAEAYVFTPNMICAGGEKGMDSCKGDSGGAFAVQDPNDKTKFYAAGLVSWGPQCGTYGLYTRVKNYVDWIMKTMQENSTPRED
Sequence of Human Matriptase-2 (Q8IU80 whole entry): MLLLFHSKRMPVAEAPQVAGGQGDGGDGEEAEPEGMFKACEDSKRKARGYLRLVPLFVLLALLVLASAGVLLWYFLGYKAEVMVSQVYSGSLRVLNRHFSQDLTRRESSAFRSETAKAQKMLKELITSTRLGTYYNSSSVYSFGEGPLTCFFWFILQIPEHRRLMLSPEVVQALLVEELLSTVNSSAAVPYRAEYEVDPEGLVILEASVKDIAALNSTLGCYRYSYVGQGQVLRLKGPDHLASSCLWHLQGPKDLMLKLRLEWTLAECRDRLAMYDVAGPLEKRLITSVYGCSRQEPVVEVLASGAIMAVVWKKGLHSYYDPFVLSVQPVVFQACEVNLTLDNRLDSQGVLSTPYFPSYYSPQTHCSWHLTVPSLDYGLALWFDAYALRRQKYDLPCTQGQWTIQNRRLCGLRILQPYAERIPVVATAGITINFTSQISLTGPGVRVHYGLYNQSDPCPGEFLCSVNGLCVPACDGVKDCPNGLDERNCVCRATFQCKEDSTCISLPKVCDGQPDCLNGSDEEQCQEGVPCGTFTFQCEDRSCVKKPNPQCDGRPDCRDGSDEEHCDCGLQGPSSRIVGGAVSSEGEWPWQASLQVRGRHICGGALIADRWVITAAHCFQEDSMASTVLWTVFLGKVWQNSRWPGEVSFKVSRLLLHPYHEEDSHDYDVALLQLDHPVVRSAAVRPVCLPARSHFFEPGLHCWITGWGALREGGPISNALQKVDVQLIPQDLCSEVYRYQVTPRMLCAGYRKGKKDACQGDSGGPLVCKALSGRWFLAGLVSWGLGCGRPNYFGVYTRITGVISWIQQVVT
Sequence of Rabbit uPA (Q8MHY7 17-433): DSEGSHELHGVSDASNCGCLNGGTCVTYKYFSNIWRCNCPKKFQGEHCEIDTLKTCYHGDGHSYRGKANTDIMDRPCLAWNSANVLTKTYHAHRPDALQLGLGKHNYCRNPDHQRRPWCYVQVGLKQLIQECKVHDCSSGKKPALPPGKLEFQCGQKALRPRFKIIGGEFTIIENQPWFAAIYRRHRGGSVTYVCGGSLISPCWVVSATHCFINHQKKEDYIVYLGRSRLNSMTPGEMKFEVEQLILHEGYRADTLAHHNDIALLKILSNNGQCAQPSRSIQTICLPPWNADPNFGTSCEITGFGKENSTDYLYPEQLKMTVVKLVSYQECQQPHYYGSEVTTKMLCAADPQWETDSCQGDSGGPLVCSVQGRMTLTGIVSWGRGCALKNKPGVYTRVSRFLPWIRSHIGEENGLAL
Sequence of Human Activated Protein C (P04070 212-450 limits assumed): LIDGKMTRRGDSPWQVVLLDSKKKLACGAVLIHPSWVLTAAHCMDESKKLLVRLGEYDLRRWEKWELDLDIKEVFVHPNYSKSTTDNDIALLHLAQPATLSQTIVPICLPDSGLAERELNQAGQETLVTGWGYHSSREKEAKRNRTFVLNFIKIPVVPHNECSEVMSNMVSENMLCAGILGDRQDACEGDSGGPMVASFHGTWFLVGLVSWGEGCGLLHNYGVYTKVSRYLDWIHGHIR
Sequence of Human Activated Protein C (P04070 43-197 partner limits assumed): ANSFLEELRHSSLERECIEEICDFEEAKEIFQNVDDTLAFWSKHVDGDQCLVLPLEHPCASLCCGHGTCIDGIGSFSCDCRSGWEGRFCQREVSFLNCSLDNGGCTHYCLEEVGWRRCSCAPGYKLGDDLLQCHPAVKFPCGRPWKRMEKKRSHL
Sequence of Human Kallikrein-11 (Q9UBX7 54-282): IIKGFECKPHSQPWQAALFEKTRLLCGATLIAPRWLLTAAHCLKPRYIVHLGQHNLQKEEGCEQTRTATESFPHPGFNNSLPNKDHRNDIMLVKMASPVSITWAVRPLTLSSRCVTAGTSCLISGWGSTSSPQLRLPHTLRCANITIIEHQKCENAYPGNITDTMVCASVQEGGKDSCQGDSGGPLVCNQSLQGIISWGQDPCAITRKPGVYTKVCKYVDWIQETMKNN
Sequence of Human Granzyme A (P12544 29-262): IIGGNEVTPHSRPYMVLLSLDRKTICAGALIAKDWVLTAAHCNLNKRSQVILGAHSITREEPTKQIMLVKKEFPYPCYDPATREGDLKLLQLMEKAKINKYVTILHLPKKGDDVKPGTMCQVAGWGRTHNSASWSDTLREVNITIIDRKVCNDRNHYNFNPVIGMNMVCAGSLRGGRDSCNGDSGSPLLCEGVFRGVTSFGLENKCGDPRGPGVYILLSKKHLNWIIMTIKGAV
Sequence of Human Kallikrein-1 (P06870 25-262): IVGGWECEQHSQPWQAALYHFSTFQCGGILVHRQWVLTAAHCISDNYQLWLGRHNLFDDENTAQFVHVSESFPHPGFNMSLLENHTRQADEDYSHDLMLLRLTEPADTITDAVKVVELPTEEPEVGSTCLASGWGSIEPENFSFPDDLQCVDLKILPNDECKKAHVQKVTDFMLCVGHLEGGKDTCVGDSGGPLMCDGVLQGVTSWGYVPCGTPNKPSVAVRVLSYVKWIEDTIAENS
T3 sequence (P00747 581-810 limits assumed): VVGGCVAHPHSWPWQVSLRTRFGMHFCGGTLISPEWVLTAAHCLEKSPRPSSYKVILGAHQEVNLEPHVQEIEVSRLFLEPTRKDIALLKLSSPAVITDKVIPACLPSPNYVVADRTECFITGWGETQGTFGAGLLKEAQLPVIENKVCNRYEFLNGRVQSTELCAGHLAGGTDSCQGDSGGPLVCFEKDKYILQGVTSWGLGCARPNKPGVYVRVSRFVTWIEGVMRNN
T3 sequence (P00747 97-580 partner limits assumed): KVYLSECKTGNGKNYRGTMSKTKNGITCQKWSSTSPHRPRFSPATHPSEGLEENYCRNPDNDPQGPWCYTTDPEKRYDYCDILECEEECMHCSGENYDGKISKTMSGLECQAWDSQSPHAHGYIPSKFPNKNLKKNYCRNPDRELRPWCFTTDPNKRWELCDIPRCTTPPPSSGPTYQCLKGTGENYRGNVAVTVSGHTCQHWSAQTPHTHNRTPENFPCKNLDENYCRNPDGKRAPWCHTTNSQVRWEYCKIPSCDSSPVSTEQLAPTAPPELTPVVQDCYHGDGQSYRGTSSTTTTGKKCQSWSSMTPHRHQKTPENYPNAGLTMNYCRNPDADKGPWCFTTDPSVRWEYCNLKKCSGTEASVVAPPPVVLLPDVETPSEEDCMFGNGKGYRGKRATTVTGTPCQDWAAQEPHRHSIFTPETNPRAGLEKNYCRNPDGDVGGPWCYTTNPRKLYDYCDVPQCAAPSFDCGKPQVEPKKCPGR
Sequence of Human Plasma Kallikrein (P03952 20-638): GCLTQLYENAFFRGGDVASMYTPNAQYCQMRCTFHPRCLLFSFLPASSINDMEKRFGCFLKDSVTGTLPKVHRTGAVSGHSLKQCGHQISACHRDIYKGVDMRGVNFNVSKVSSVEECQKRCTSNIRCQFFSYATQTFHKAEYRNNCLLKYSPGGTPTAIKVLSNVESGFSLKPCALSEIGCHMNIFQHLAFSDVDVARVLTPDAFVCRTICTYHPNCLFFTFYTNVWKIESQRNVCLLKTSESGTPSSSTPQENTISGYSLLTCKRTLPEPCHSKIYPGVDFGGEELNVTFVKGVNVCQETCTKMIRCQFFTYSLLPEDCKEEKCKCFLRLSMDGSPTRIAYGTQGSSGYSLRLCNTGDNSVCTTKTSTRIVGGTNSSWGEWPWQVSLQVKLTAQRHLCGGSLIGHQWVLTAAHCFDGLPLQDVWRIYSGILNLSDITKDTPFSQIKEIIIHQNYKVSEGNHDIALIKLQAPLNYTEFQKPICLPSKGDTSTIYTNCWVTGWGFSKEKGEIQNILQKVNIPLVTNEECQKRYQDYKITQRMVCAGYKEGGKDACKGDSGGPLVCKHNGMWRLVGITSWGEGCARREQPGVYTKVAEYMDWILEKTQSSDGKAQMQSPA
Sequence of Human DESC-1 (Q9UL52 whole entry): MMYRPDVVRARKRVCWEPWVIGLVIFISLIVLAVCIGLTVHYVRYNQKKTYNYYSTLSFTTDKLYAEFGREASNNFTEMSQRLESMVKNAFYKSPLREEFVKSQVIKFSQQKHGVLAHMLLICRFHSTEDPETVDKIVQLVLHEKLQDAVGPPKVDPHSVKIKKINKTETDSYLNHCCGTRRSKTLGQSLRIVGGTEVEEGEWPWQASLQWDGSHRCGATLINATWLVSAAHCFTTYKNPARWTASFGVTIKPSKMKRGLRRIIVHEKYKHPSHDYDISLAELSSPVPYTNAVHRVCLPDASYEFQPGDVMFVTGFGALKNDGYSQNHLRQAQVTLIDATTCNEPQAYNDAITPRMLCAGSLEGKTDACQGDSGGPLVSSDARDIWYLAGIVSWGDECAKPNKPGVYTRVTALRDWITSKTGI

CCOC(=O)N1CCN(C(=O)[C@H](Cc2cccc(C(=N)N)c2)NS(=O)(=O)c2c(C(C)C)cc(C(C)C)cc2C(C)C)CC1 [WX-UK1, N-α-(2,4,6-triisopropylphenylsulfonyl)-3-amidino-phenylalanine-4-ethoxycarbonylpiperazide]
Ki (Human Trypsin-3): 19 ± 4 nM | Ki (Human Spinesin): 7.7 ± 0.5 µM | Ki [1]: 14 ± 0.4 µM | Ki [2]: 2900 ± 100 nM | IC50 (Human PRSS27): 19 ± 4 µM | Ki (Human TMPRSS11(A)): 390 ± 10 nM | Ki (Human HAT): 1500 ± 100 nM | Ki [3]: 3.9 ± 0.2 µM | Ki (Human Hepsin): 4.3 ± 0.5 µM | Ki (Mouse uPA): 45 ± 6 µM | Ki (Human Trypsin-6): 100 ± 10 nM | antiviral activity / viral replication [4]: potent antiviral activity; also recorded: inhibited | infectious virus production, TCID50 assay in apical washes [4]: dose-dependent reduction | reduction in viral load by TCID50 ([4]; lowest concentration 3.33 μg/ml, […]): 4 log | Ki (Human Kallikrein-8): > 250 µM | Ki (Human Enterokinase): 710 ± 40 nM | Ki (Human Fxa): 2600 ± 400 nM | inhibition of SARS-2-S-driven pseudotype entry [5]: moderate inhibitory activity | Ki (Human Granzyme A): > 250 µM | Ki (Human Plasmin): 2400 ± 300 nM | Ki (Rat uPA): 400 ± 100 nM | Ki (Rabbit uPA): 800 ± 100 nM | Ki (Human Kallikrein-1): > 250 µM | Ki (Human FXIa): 900 ± 100 nM | inhibition of VSV-G entry [6]: moderately inhibited | Ki (Human Trypsin-2): 75 ± 3 nM | inhibition of SARS-2-S-driven pseudotype entry [7]: moderate inhibitory activity | Ki (Human Trypsin-1): 190 ± 10 nM | Ki (Human Thrombin): 800 ± 100 nM | Ki (Human FIXa): 2500 ± 200 nM | Ki (Human Matriptase-2): 6.4 ± 0.3 µM | Ki (Human two-chain tPA): 1400 ± 100 nM | Ki (Human C1s): 3.1 ± 0.4 µM | Ki (Human uPA): 900 ± 100 nM | Ki (Human Kallikrein-11): > 250 µM | Ki (Human Plasma Kallikrein): 26 ± 1 µM | Ki (Human TMPRSS2): 2900 ± 40 nM | Ki (Human DESC-1): 13 ± 2 µM | Ki [8]: 500 ± 100 nM | IC50 (Human Prostasin): > 250 µM | Ki (Human HGFA): 28 ± 5 µM

CCN(CC)CCCC(C)Nc1ccnc2cc(Cl)ccc12 (centres unmarked) [chloroquine]
inhibition of S protein-driven entry [7]: potently inhibited

4-[[4-[(Aminoiminomethyl)amino]benzoyl]oxy] benzeneacetic acid 2-(dimethylamino)-2-oxoethyl ester methanesulfonate [camostat, reference compound]
antiviral activity / viral replication [4]: inhibited | inhibition of SARS-2-S-driven pseudotype entry [7]: inactive
